Patent publication US20260265267A1, “NOVEL COMPOUNDS WITH MTORC2-INHIBITORY ACTIVITY AND USES THEREOF” (Aliad Biopharma, priority 2023, published 2026)

Key:
[1] = target: T1, mTORC1 (Homo sapiens, UniProt P42345); experiment: mTORC1 inhibitory activity in HeLa cells (p70S6K Thr389 phosphorylation, Western blot); assay type: cell-based; details: for remaining activity at 40 µM: 9 hours, read-out: pThr389-S6K/S6K (% control); for inhibition at 40 µM: HeLa, 9 h, read-out: reduction in p70S6K Thr389 phosphorylation compared to the control group
T1 construct: the following experiments were conducted in HeLa cells; endogenous in cells; host or cells: HeLa
Description: (§1) Specifically, HeLa cells were cultured in a 5% CO2 incubator at 37° C. in DMEM (Dulbecco's Modified Eagles Media) medium supplemented with 10% FBS, penicillin (100 unit/ml), and streptomycin (100 μg/ml). Cultivation was started by seeding 4×10^5 cells in a 100 mm culture dish, and subculture was carried out every 3 days.
(§2) Human cell line HeLa cells were seeded in a 60 mm culture dish at a density of 2×10^5 cells/plate, and cultured for 24 hours. Then, HeLa cells were treated with 70 types of compounds at a concentration of 40 μM each for 9 hours. HeLa cells were washed twice with cold 1×PBS, and then lysed with 100 μl of RIPA buffer (50 mM Tris-HCl (pH7.4), 0.25% sodium deoxycholate, 50 mM NaF, 1% NP-40, 150 mM NaCl, 1 mM β-glycerophosphate, 1 mM PMSF, 1 mM NaVO4, 1 μg/ml leupeptin, 1 μg/ml pepstatin A, 10 nM calyculin A, 10 μg/ml aprotinin, 1 mM EDTA) to hemolyze the cell membrane. Then, the lysates were centrifuged at 12,000 rpm at 4° C. for 10 minutes to collect the supernatant, which is cell lysate. Protein concentration in the cell lysate was determined using the BCA protein assay kit (Thermo Fisher Scientific), and equal amounts of protein were separated by SDS-PAGE.
(§3) Western blot analysis was performed by the following method. […] After washing the membrane three times for 5 minutes each with TBS-T buffer, it was incubated with primary antibodies diluted in TBS-T buffer containing 5% skim milk or 5% BSA overnight at 4° C. Subsequently, the membrane was washed three times for 5 minutes each with TBS-T buffer, and then incubated with secondary antibodies diluted in TBS-T buffer containing 5% skim milk at room temperature for 30 minutes. The membrane was washed five times for 5 minutes each with TBS-T buffer containing 5% skim milk, and then the protein bands bound by the secondary antibody were detected using a chemiluminescence method. The primary antibodies used were Akt (cell signaling, #4691), pAkt(S473) (Cell signaling, #4060), p70S6K (Cell signaling, #S6198), pp70S6K(T389) (cell signaling, #9205S), LC3-II (MBL, #PM036), and the secondary antibodies used were HRP conjugated anti-rabbit (Jackson immunoresearch laboratory, #711-035-152) and HRP conjugated anti-mouse IgG (Jackson immunoresearch laboratory, #515-035-072).
As an mTORC1 activity indicator in HeLa cells, the level of p70S6K Thr389 phosphorylation was selected as a marker, and the level of phosphor-p70S6K (Thr389) signal measured by Western blot analysis was normalized to a level of pan-p70S6K signal, and then expressed as a percentage of the control group treated with only DMSO, which is a vehicle.

[2] = system: LC3-II; experiment: LC3-II formation as indicator of autophagy in HeLa cells (Western blot); assay type: cell-based, human; details: Homo sapiens, 9 hours, read-out: LC3-II (% control)
Description: as §1, §2, §3
LC3-II formation was selected as an indicator of autophagy in HeLa cells, and the LC3-II signal obtained from Western blot analysis was normalized to the pan-Akt signal and the data were expressed as a percentage relative to the control group treated with DMSO only, which is a vehicle.

[3] = target: T2, mTORC2 (Homo sapiens, UniProt P42345); experiment: mTORC2 inhibitory activity in HeLa cells (Akt Ser473 phosphorylation, Western blot); assay type: cell-based; details: for selective inhibition of mTORC2: 40 μM, versus mTORC1; for selective inhibition of mTORC2 / remaining activity at 40 µM: 9 hours; for remaining activity at 40 µM: read-out: pSer473-AKT/AKT (% control); for inhibition at 40 µM: HeLa, 9 h, read-out: reduction in Akt Ser473 phosphorylation compared to the control group
T2 construct: the following experiments were conducted in HeLa cells; endogenous in cells; host or cells: HeLa
Description: as §1, §2, §3
As an mTORC2 activity indicator in HeLa cells, the level of Akt Ser473 phosphorylation was selected as a marker, and the phosphor-Akt (Ser473) signal obtained from Western blot analysis was normalized to the pan-Akt signal, and the data were expressed as a percentage relative to the control group treated with DMSO only, which is a vehicle.

## O=C1c2cc(F)c(N3CCC(Cc4ccccc4)CC3)cc2COc2cc3c(cc21)OCO3 [HN2222, 8-(4-benzylpiperidin-1-yl)-9-fluoro[2]benzoxepino[3,4-f]-1,3-benzodioxol-11(6H)-one]
[1]
  remaining activity at 40 µM: 95%
[2]
  activity at 40 µM: 89%
[3]
  selective inhibition of mTORC2: selectively inhibit mTORC2
  remaining activity at 40 µM: 69%
  inhibition at 40 µM: > 20%

## O=C1c2cc3c(cc2OCc2c1ccc(F)c2F)OCO3 [HN2225, 7,8-difluoro[2]benzoxepino[3,4-f]-1,3-benzodioxol-11(6H)-one]
[1]
  remaining activity at 40 µM: 100%
[2]
  activity at 40 µM: 100%
[3]
  selective inhibition of mTORC2: selectively inhibit mTORC2
  remaining activity at 40 µM: 66%
  inhibition at 40 µM: > 20%

## O=C1c2cc3c(cc2OCc2c1ccc(NC1CCCCC1)c2F)OCO3 [HN2231, 8-(cyclohexylamino)-7-fluoro[2]benzoxepino[3,4-f]-1,3-benzodioxol-11(6H)-one]
[1]
  remaining activity at 40 µM: 49%
  inhibition at 40 µM: > 20%
[2]
  activity at 40 µM: 122%
[3]
  remaining activity at 40 µM: 100%

## O=C1c2cc3c(cc2OCc2c1ccc(N1CCC(Cc4ccccc4)CC1)c2F)OCO3 [HN2232, 8-(4-benzylpiperidin-1-yl)-7-fluoro[2]benzoxepino[3,4-f]-1,3-benzodioxol-11(6H)-one]
[1]
  remaining activity at 40 µM: 136%
[2]
  activity at 40 µM: 64%
[3]
  selective inhibition of mTORC2: selectively inhibit mTORC2
  remaining activity at 40 µM: 48%
  inhibition at 40 µM: > 20%

## COc1ccc(CCNc2ccc3c(c2F)COc2cc4c(cc2C3=O)OCO4)cc1 [HN2233, 8-((4-methoxyphenethyl)amino)-7-fluoro[2]benzoxepino[3,4-f]-1,3-benzodioxol-11(6H)-one]
[1]
  remaining activity at 40 µM: 107%
[2]
  activity at 40 µM: 121%
[3]
  selective inhibition of mTORC2: selectively inhibit mTORC2
  remaining activity at 40 µM: 74%
  inhibition at 40 µM: > 20%

## CS(=O)(=O)Nc1cc2c(cc1F)C(=O)c1cc3c(cc1OC2)OCO3 [HN2301, N-(9-fluoro-11-oxo-6,11-dihydro-[1,3]dioxolo[4′,5′:4,5]benzo[1,2-b]benzo[e]oxepin-8-yl)methanesulfonamide]
[1]
  remaining activity at 40 µM: 81%
[2]
  activity at 40 µM: 96%
[3]
  selective inhibition of mTORC2: selectively inhibit mTORC2
  remaining activity at 40 µM: 54%
  inhibition at 40 µM: > 20%

## CS(=O)(=O)Nc1ccc2c(c1F)COc1cc3c(cc1C2=O)OCO3 [HN2302, N-(7-fluoro-11-oxo-6,11-dihydro-[1,3]dioxolo[4′,5′:4,5]benzo[1,2-b]benzo[e]oxepin-8-yl)methanesulfonamide]
[1]
  remaining activity at 40 µM: 122%
[2]
  activity at 40 µM: 108%
[3]
  selective inhibition of mTORC2: selectively inhibit mTORC2
  remaining activity at 40 µM: 73%
  inhibition at 40 µM: > 20%

## COc1cc2c(cc1OC)C(=O)c1cc(F)c(N3CCCCC3)cc1CC2 [HN2315, 3-fluoro-7,8-dimethoxy-2-(piperidin-1-yl)-10,11-dihydro-5H-dibenzo[a,d][7]annulen-5-one]
[1]
  remaining activity at 40 µM: 223%
[2]
  activity at 40 µM: 620%
[3]
  selective inhibition of mTORC2: selectively inhibit mTORC2
  remaining activity at 40 µM: 28%
  inhibition at 40 µM: > 20%

## COc1cc2c(cc1OC)C(=O)c1cc(F)c(N3CCN(c4ccccc4)CC3)cc1CC2 [HN2316, 3-fluoro-7,8-dimethoxy-2-(4-phenylpiperazin-1-yl)-10,11-dihydro-5H-dibenzo[a,d][7]annulen-5-one]
[1]
  remaining activity at 40 µM: 38%
  inhibition at 40 µM: > 20%
[2]
  activity at 40 µM: 256%
[3]
  remaining activity at 40 µM: 20%
  inhibition at 40 µM: > 20%

## O=C1c2cc3c(cc2OCc2c1ccc(NC1CC1)c2F)OCO3 [HN2318, 8-(cyclopropylamino)-7-fluoro-[1,3]dioxolo[4′,5′:4,5]benzo[1,2-b]benzo[e]oxepin-11(6H)-one]
[1]
  remaining activity at 40 µM: 109%
[2]
  activity at 40 µM: 227%
[3]
  selective inhibition of mTORC2: selectively inhibit mTORC2
  remaining activity at 40 µM: 42%
  inhibition at 40 µM: > 20%

## O=C1c2cc3c(cc2OCc2c1ccc(NC1CCCC1)c2F)OCO3 [HN2319, 8-(cyclopentylamino)-7-fluoro-[1,3]dioxolo[4′,5′:4,5]benzo[1,2-b]benzo[e]oxepin-11(6H)-one]
[1]
  remaining activity at 40 µM: 78%
  inhibition at 40 µM: > 20%
[2]
  activity at 40 µM: 157%
[3]
  remaining activity at 40 µM: 79%
  inhibition at 40 µM: > 20%

## COc1cc2c(cc1OC)C(=O)c1cc(F)c(NC3CCCC3)cc1CC2 [HN2321, 2-(cyclopentylamino)-3-fluoro-7,8-dimethoxy-10,11-dihydro-5H-dibenzo[a,d][7]annulen-5-one]
[1]
  remaining activity at 40 µM: 33%
  inhibition at 40 µM: > 20%
[2]
  activity at 40 µM: 160%
[3]
  remaining activity at 40 µM: 140%

## COc1cccc(CNc2cc3c(cc2F)C(=O)c2cc4c(cc2OC3)OCO4)c1 [HN2325, 9-fluoro-8-((3-methoxybenzyl)amino)-[1,3]dioxolo[4′,5′:4,5]benzo[1,2-b]benzo[e]oxepin-11(6H)-one]
[1]
  remaining activity at 40 µM: 44%
  inhibition at 40 µM: > 20%
[2]
  activity at 40 µM: 249%
[3]
  remaining activity at 40 µM: 87%

## COc1ccc(CNc2cc3c(cc2F)C(=O)c2cc4c(cc2OC3)OCO4)cc1 [HN2326, 9-fluoro-8-((4-methoxybenzyl)amino)-[1,3]dioxolo[4′,5′:4,5]benzo[1,2-b]benzo[e]oxepin-11(6H)-one]
[1]
  remaining activity at 40 µM: 153%
[2]
  activity at 40 µM: 404%
[3]
  selective inhibition of mTORC2: selectively inhibit mTORC2
  remaining activity at 40 µM: 69%
  inhibition at 40 µM: > 20%

## COc1ccc(CNc2cc3c(cc2F)C(=O)c2cc4c(cc2OC3)OCO4)c(OC)c1 [HN2328, 8-((2,4-dimethoxybenzyl)amino)-9-fluoro-[1,3]dioxolo[4′,5′:4,5]benzo[1,2-b]benzo[e]oxepin-11(6H)-one]
[1]
  remaining activity at 40 µM: 86%
[2]
  activity at 40 µM: 340%
[3]
  selective inhibition of mTORC2: selectively inhibit mTORC2
  remaining activity at 40 µM: 78%
  inhibition at 40 µM: > 20%

## COc1ccc(CNc2cc3c(cc2F)C(=O)c2cc4c(cc2OC3)OCO4)cc1OC [HN2329, 8-((3,4-dimethoxybenzyl)amino)-9-fluoro-[1,3]dioxolo[4′,5′:4,5]benzo[1,2-b]benzo[e]oxepin-11(6H)-one]
[1]
  remaining activity at 40 µM: 57%
  inhibition at 40 µM: > 20%
[2]
  activity at 40 µM: 386%
[3]
  remaining activity at 40 µM: 36%
  inhibition at 40 µM: > 20%
